Results reported in patent publication US5140015A, “2-aralkoxy and 2-alkoxy adenosine derivatives as coronary vasodilators and antihypertensive agents” (Whitby Research, Inc., priority 1990, dated 1992).

What follows are compounds tested against T1, A2 receptor of the coronary artery (Cavia porcellus, UniProt P46616) (assay: Coronary flow increase in isolated perfused heart (Langendorff preparation)). Conditions: not given.
T1 construct: perfused hearts from female Sprague-Dawley guinea pigs in an isolated Langendorff heart preparation; from tissue; host or cells: isolated perfused guinea pig heart (Langendorff), coronary vasculature
T1 sequence (P46616 whole entry, the tested form may be a part): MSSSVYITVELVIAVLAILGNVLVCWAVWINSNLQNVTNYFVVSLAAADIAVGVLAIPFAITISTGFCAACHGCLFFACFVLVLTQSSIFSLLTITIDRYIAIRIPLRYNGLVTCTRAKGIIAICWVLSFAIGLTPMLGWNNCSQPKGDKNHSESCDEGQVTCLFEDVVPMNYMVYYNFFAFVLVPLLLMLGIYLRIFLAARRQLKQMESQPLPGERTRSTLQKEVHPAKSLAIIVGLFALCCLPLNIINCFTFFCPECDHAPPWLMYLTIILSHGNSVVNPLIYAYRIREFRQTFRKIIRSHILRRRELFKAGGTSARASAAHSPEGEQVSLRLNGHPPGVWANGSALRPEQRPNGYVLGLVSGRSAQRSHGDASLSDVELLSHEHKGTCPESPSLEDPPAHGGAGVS
Design: species or system guinea pig (female Sprague-Dawley)
Protocol: (§1) Assays of the cardiovascular potency of the above compounds at the A1 receptors of the SA node and at the A2 receptor of the coronary artery employed perfused hearts from female Sprague-Dawley guinea pigs in an isolated Langendorff heart preparation. An assay consists of an infusion of a spectophotometrically standardized solution of test compound directly into the aortic cannula at rates increasing stepwise every 5 minutes. Collection of the total cardiac effluent during the first half of each infusion period provides a measure of coronary flow (A2 effect). The concentration of test compound required to produce a half-maximal increase in coronary flow is determined. Registration of the ECG assesses the effect of the test compound on SA node (stimulus to Q interval, A1 effect). The concentration of test compound required to produce a half-maximal prolongation of stimulus to Q interval is determined. […] The ratio of A1 and A2 effects of test compounds are calculated to provide the selectivity ratio.
Compound `Nc1nc(OCCc2cccs2)nc2c1ncn2[C@@H]1O[C@H](CO)[C@@H](O)[C@H]1O` [Example 13, 2-[2-(2-thienyl)ethoxy]adenosine] has an EC50 of 3.7 nM.
With `Nc1nc(OCCCCc2ccccc2)nc2c1ncn2[C@@H]1O[C@H](CO)[C@@H](O)[C@H]1O` [Example 20, 2-(4-phenyl-1-butoxy)adenosine] the EC50 was 9.9 nM.

Same assay, conditions: isolated perfused guinea pig heart; concentration for half-maximal increase in coronary flow; stepwise infusion every 5 minutes; read-out: Coronary Blood Flow Increase (A2) EC50
In the case of `Nc1nc(OCCCc2ccccc2)nc2c1ncn2[C@@H]1O[C@H](CO)[C@@H](O)[C@H]1O` [Example 1, 2-(3-phenyl-1-propoxy)adenosine], the EC50 is reported as 61.3 nM.
In the case of `Nc1nc(OCCc2ccc(F)cc2)nc2c1ncn2[C@@H]1O[C@H](CO)[C@@H](O)[C@H]1O` [Example 2, 2-[2-(4-fluorophenyl)ethoxy]adenosine], the EC50 is reported as 0.9 nM.
`Nc1nc(OC2CCCC2)nc2c1ncn2[C@@H]1O[C@H](CO)[C@@H](O)[C@H]1O` [Example 3, 2-Cyclopentyloxyadenosine] was tested, and the EC50 was 91.7 nM.
`Nc1nc(OC2CCCCC2)nc2c1ncn2[C@@H]1O[C@H](CO)[C@@H](O)[C@H]1O` [Example 4, 2-Cyclohexyloxyadenosine] was tested, and the EC50 was 657 nM.
`Nc1nc(OCc2ccccc2)nc2c1ncn2[C@@H]1O[C@H](CO)[C@@H](O)[C@H]1O` [Example 6, 2-benzyloxyadenosine] was tested, and the EC50 was 419 nM.
For `Nc1nc(OCCc2ccccc2)nc2c1ncn2[C@@H]1O[C@H](CO)[C@@H](O)[C@H]1O` [Example 7, 2-(2-phenylethoxy)adenosine], the EC50 was 2.8 nM.
`COc1ccccc1CCOc1nc(N)c2ncn([C@@H]3O[C@H](CO)[C@@H](O)[C@H]3O)c2n1` [Example 8, 2-[2-(2-methoxyphenyl)ethoxy]adenosine] gave an EC50 of 32 nM.
In the case of `COc1cccc(CCOc2nc(N)c3ncn([C@@H]4O[C@H](CO)[C@@H](O)[C@H]4O)c3n2)c1` [Example 9, 2-[2-(3-methoxyphenyl)ethoxy]adenosine], the EC50 is reported as 2.6 nM.
Work on `COc1ccc(CCOc2nc(N)c3ncn([C@@H]4O[C@H](CO)[C@@H](O)[C@H]4O)c3n2)cc1` [Example 10, 2-[2-(4-methoxyphenyl)ethoxy]adenosine] yielded an EC50 of 1.4 nM.
For `Cc1ccccc1CCOc1nc(N)c2ncn([C@@H]3O[C@H](CO)[C@@H](O)[C@H]3O)c2n1` [Example 11, 2-[2-(2-methylphenyl)ethoxy]adenosine], the EC50 was 3.8 nM.
In the case of `COc1cc(CCOc2nc(N)c3ncn([C@@H]4O[C@H](CO)[C@@H](O)[C@H]4O)c3n2)cc(OC)c1OC` [Example 12, 2-[2-(3,4,5-trimethoxyphenyl)ethoxy]adenosine], the EC50 is reported as 22 nM.
For `CC(COc1nc(N)c2ncn([C@@H]3O[C@H](CO)[C@@H](O)[C@H]3O)c2n1)c1ccccc1` (stereo partly drawn) [Example 17, 2-(2-phenyl-1-propoxy)adenosine], the EC50 was 9 nM.
`CC[C@H](COc1nc(N)c2ncn([C@@H]3O[C@H](CO)[C@@H](O)[C@H]3O)c2n1)c1ccccc1` [Example 19, 2-[(2S)-phenyl-1-butoxy]adenosine] was tested, and the EC50 was 31.4 nM.
For `CCNC(=O)[C@H]1O[C@@H](n2cnc3c(N)nc(OCCc4ccccc4)nc32)[C@H](O)[C@@H]1O` [Example 22, 2-(2-phenyl)ethoxy-5'-N-ethylcarboxamidoadenosine], the EC50 was 1.3 nM.

These compounds were tested on A2 receptor of the coronary artery in the same assay as above. Conditions: ratio of A1 (SQ prolongation) and A2 (coronary flow) effects.
Design: species or system guinea pig (female Sprague-Dawley)
Protocol: as §1
In the case of `Nc1nc(OCc2ccccc2)nc2c1ncn2[C@@H]1O[C@H](CO)[C@@H](O)[C@H]1O` [Example 6, 2-benzyloxyadenosine], the “Selectivity (A1/A2)” value is reported as 15.
In the case of `CC[C@@H](COc1nc(N)c2ncn([C@@H]3O[C@H](CO)[C@@H](O)[C@H]3O)c2n1)c1ccccc1` [Example 18], the “Selectivity (A1/A2)” value is reported as 50.

The compounds below were run against T2, A1 receptors of the SA node (Cavia porcellus, UniProt P47745) (assay: SQ (stimulus to Q interval) prolongation in isolated perfused heart (Langendorff preparation)). Conditions: isolated perfused guinea pig heart; concentration for half-maximal prolongation of stimulus to Q interval; read-out: SQ Prolongation (A1) ED50.
T2 construct: perfused hearts from female Sprague-Dawley guinea pigs in an isolated Langendorff heart preparation; from tissue; host or cells: isolated perfused guinea pig heart (Langendorff), nodal tissue
T2 sequence (P47745 1-326): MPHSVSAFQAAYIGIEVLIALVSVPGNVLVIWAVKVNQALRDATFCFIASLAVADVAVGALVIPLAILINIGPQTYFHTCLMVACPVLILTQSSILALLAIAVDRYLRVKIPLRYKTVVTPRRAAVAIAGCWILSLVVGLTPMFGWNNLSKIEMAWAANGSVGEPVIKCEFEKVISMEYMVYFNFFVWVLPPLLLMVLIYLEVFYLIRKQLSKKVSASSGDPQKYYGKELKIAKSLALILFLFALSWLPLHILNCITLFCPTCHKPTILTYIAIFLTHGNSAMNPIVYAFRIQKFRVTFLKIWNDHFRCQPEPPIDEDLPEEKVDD
Design: species or system guinea pig (female Sprague-Dawley)
Protocol: as §1
`Nc1nc(OC2CCCC2)nc2c1ncn2[C@@H]1O[C@H](CO)[C@@H](O)[C@H]1O` [Example 3, 2-Cyclopentyloxyadenosine] was tested, and the EC50 was 79.4 µM.
With `Nc1nc(OC2CCCCC2)nc2c1ncn2[C@@H]1O[C@H](CO)[C@@H](O)[C@H]1O` [Example 4, 2-Cyclohexyloxyadenosine] the EC50 was 100 µM.
In the case of `Nc1nc(OCCC2CCCCC2)nc2c1ncn2[C@@H]1O[C@H](CO)[C@@H](O)[C@H]1O` [Example 5, 2-(2-Cyclohexylethoxy)adenosine], the EC50 is reported as 8.63 µM.
`Nc1nc(OCCc2ccsc2)nc2c1ncn2[C@@H]1O[C@H](CO)[C@@H](O)[C@H]1O` [Example 14, 2-[2-(3-thienyl)ethoxy]adenosine] was tested, and the EC50 was 18.8 µM.
`CC(COc1nc(N)c2ncn([C@@H]3O[C@H](CO)[C@@H](O)[C@H]3O)c2n1)c1ccccc1` (stereo partly drawn) [Example 17, 2-(2-phenyl-1-propoxy)adenosine] was tested, and the EC50 was 53.1 µM.
Work on `CC[C@H](COc1nc(N)c2ncn([C@@H]3O[C@H](CO)[C@@H](O)[C@H]3O)c2n1)c1ccccc1` [Example 19, 2-[(2S)-phenyl-1-butoxy]adenosine] yielded an EC50 of 27.4 µM.
For `Nc1nc(OCCCCc2ccccc2)nc2c1ncn2[C@@H]1O[C@H](CO)[C@@H](O)[C@H]1O` [Example 20, 2-(4-phenyl-1-butoxy)adenosine], the EC50 was 7.36 µM.
Work on `CCNC(=O)[C@H]1O[C@@H](n2cnc3c(N)nc(OCCc4ccccc4)nc32)[C@H](O)[C@@H]1O` [Example 22, 2-(2-phenyl)ethoxy-5'-N-ethylcarboxamidoadenosine] yielded an EC50 of 15 µM.
`Nc1nc(OCCCC2CCCCC2)nc2c1ncn2[C@@H]1O[C@H](CO)[C@@H](O)[C@H]1O` [Example 23, 2-(3-cyclohexyl)propoxyadenosine] gave an EC50 of 3.76 µM.
